{
  "source": "patent US20250276993A1",
  "about": "“PSEUDO-DISACCHARIDE COMPOUNDS” (UNIVERSITEIT LEIDEN, priority 2022, published 2025)",
  "key": {"[1]": {"biological_target": "T1, GUSB (Homo sapiens, UniProt P08236)", "T1 construct": "Platelet lysates contain complex mixtures of overlapping enzyme activities, including both endo- and exo-β-glucuronidases HPSE and GUSB; endogenous in cells; host or cells: human platelet lysates", "T1 sequence (P08236 23-651)": "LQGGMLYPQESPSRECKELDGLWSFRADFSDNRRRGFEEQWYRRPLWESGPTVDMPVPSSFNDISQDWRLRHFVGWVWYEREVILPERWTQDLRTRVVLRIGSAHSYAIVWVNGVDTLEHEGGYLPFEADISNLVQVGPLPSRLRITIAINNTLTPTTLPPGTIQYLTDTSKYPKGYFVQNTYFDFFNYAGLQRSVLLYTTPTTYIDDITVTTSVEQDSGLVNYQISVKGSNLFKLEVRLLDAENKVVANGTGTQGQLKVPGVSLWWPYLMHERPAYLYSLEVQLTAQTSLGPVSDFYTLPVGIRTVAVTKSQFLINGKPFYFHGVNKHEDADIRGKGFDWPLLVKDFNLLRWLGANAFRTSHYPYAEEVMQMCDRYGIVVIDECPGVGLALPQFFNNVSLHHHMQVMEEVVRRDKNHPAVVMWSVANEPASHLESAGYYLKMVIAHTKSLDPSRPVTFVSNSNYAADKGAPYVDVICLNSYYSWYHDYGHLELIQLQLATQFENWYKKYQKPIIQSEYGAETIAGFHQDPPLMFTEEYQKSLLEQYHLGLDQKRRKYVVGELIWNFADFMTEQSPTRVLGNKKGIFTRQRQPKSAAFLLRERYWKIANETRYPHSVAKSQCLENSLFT", "test": "cABPP Assay 2, platelet lysates, GUSB", "assay_type": "biochemical", "conditions": "preincubation with inhibitor", "procedure": "(§1) For further competitive ABPP studies, a working protein mixture was prepared by mixing the platelet lysates (87.5 μL), buffer (pH 5.0, 150 mM, 157.5 μL) and 3 M NaCl solution (35 μL). The enzymatic reactions were carried out at a constant concentration of read-out 7 (100 nM, final). For each inhibitor 2, 12 and 13, triplicate sets of ten 0.5 mL low protein binding Eppendorf tubes were prepared. Working solutions of each inhibitor (1% DMSO (w/v), 5 μL) in a range of ten concentrations (100, 50, 25, 12.5, 6.3, 3.1, 1.6, 0.8, 0.4, 0 μM) were prepared with MilliQ water and kept on ice. The working protein mixture (8 μL) was added in each protein low binding 0.5 mL Eppendorf tube, and 1 μL of inhibitor solution was added while on ice.\n(§2) Further cABPP studies were undertaken using platelet lysates to provide a more physiologically realistic environment. Platelet lysates contain complex mixtures of overlapping enzyme activities, including both endo- and exo-β-glucuronidases HPSE and GUSB respectively, thus provide a challenging environment to test inhibitor specificity."}, "[2]": {"biological_target": "T2, HPSE (platelet) (Homo sapiens, UniProt Q9Y251)", "T2 construct": "endogenous in cells; host or cells: human platelet lysates", "T2 sequence (Q9Y251 158-543 limits assumed)": "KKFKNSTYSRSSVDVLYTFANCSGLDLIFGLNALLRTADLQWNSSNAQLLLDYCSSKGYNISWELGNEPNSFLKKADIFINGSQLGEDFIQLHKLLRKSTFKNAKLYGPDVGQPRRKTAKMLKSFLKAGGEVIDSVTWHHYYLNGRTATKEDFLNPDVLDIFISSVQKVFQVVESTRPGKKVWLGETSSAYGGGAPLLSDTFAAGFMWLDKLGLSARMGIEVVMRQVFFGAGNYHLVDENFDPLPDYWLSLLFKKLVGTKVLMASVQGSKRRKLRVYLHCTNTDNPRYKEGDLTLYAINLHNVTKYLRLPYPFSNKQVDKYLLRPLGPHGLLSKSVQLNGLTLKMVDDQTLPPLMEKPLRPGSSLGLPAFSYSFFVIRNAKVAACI", "T2 sequence (Q9Y251 36-109 limits assumed)": "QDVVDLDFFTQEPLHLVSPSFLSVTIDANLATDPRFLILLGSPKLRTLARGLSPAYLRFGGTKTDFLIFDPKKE", "test": "cABPP Assay 2, platelet lysates, HPSE", "assay_type": "biochemical", "conditions": "for IC50: apparent IC50, in-gel competitive ABPP-based assay, platelet lysate, read-out: In vitro IC50 HPSE (platelet); for inhibitor concentration down to which HPSE signal is abrogated: platelet lysates, preincubation with inhibitor", "procedure": "as §1, §2"}, "[3]": {"biological_target": "T3, rHPSE (Homo sapiens, UniProt Q9Y251)", "T3 sequence (Q9Y251 36-109 limits assumed)": "T2 sequence (Q9Y251 36-109 limits assumed)", "T3 sequence (Q9Y251 158-543 limits assumed)": "T2 sequence (Q9Y251 158-543 limits assumed)", "test": "in-gel competitive ABPP, recombinant HPSE", "assay_type": "biochemical", "conditions": "for IC50: apparent IC50, in-gel competitive ABPP-based assay, read-out: In vitro IC50 rHPSE", "procedure": "(§3) ABP labelling reactions were carried out in Mcllvaine buffer (pH 5.5), 300 mM NaCl. For recombinant proteins 200 fmol of EcGH2, BpHep, AcGH79, HPSE or proHPSE was used (20 nM in 10 μl final reaction volume). For labeling cell lysates, 4-20 μg total protein was used. Labeling reactions were initiated by the addition of ABP compounds 7, 8 or 9 to a final concentration of 100 nM (unless otherwise specified), before incubation for 30 min at 37° C. with shaking. Following labeling, samples were denatured by boiling with Laemmli buffer for 5 min and resolved by SDS-PAGE. Gels were scanned using Typhoon-5 laser scanner platform (Cytiva), using the λEX 635 nm laser and 670BP30 emission filter. For competitive ABPP (cABPP) experiments, protein mixtures were preincubated with inhibitor (or buffer only control) for 1 h at 37° C. with shaking, before the addition of 7 to a final concentration of 100 nM, and subsequent incubation for 30 min at 37° C. with shaking. SDS-PAGE and analysis steps were carried out as above. For quantitative measurements, fluorescently labeled band intensities were calculated using Imagequant (Cytiva), and normalized to the corresponding band in the inhibitor free control lane. cABPP plots were prepared and analyzed using SigmaPlot 14.0 (Systat).\n(§4) Competitive activity of compounds 2, 12 and 13 were investigated using cABPP Assay 2.\nTo gain insight into HPSE structure-activity relationships, apparent HPSE inhibition was tested for cyclitol 12, its disaccharidic analogue 13 and parent HPSE inhibitor 2 (FIG. 7a). […] Conversely, 13 could inactivate rHPSE down to 2 μM inhibitor concentration similar to 2."}, "[4]": {"biological_target": "AcGH79 (Acidobacterium capsulatum, UniProt C1F2K5)", "test": "in-gel competitive ABPP, recombinant AcGH79", "assay_type": "biochemical, A. capsulatum", "conditions": "Cy5-tagged β-D-glucuronidase ABP read-out, at the tested enzyme concentration", "procedure": "as §3, §4"}, "[5]": {"biological_target": "T4, HPSE (Homo sapiens, UniProt Q9Y251)", "T4 sequence (Q9Y251 36-109 limits assumed)": "T2 sequence (Q9Y251 36-109 limits assumed)", "T4 sequence (Q9Y251 158-543 limits assumed)": "T2 sequence (Q9Y251 158-543 limits assumed)", "test": "cABPP Assay 1, recombinant HPSE", "assay_type": "biochemical", "conditions": "1 h preincubation at 37° C., pH 5.5, 100 nM ABP 7"}, "[6]": {"biological_target": "T4, HPSE", "test": "X-ray crystallography, ligand soaking of HPSE crystals", "conditions": "crystal soaking", "excerpt": "Xray diffraction data were collected at 100 K at beamlines i03 (HPSE-2, HPSE-3, HPSE-4, EcGUSB-1, BpHep-3), i04 (AcGH79-2, BpHep-2) and i04-1 (Apo-AcGH79, AcGH79-1, AcGH79-3) of the Diamond Light Source UK. Reflections were autoprocessed using the XIA2 pipeline. Complexes were solved by directly refining against their unliganded structures where isomorphous, or else solved by molecular replacement with PHASER (search model PDB accessions: 5E98 (HPSE), 3VNY (AcGH79), 3K46 (EcGUSB), 5BWI (BpHep)). […] Ligand coordinates were built using jLigand. Diagrams were generated using PyMOL.\nHPSE—Well diffracting crystals of HPSE were obtained by the sitting-drop vapor-diffusion method at 20° C. using a well solution containing 0.1 M MES pH 5.5, 0.1 M MgCl2, 17% (w/v) PEG 3350, and a protein to well solution ratio of 200 nl:500 nl. Crystals typically appeared after 1 week. Inhibitor ligand complexes were obtained by transferring HPSE crystals to drops of well solution supplemented with 25% (v/v) ethylene glycol and 1-5 mM inhibitor. Crystals were incubated with ligand for ˜2-4 h, then directly harvested and flash-cooled in LN2 for data collection.\nTo better understand the molecular basis of interaction between our inhibitors and their targets, we turned to X-ray crystallography, using ligand soaking to derivatize enzymes in crystallo."}, "[7]": {"tested_on": "BpHep and AcGH79", "assay_type": "biochemical, B. pseudomallei; A. capsulatum", "conditions": "cABPP Assay 1"}, "[8]": {"biological_target": "T5, HPSE (Homo sapiens, UniProt Q9Y251)", "T5 construct": "fluorescent ABPs 7, 8 and 9 were applied to whole cell lysates from a panel of human cancer cell lines; endogenous in cells; host or cells: U87, PANC1, SKBR3, MDA-MB-231, HT1080, platelet lysates", "T5 sequence (Q9Y251 36-543)": "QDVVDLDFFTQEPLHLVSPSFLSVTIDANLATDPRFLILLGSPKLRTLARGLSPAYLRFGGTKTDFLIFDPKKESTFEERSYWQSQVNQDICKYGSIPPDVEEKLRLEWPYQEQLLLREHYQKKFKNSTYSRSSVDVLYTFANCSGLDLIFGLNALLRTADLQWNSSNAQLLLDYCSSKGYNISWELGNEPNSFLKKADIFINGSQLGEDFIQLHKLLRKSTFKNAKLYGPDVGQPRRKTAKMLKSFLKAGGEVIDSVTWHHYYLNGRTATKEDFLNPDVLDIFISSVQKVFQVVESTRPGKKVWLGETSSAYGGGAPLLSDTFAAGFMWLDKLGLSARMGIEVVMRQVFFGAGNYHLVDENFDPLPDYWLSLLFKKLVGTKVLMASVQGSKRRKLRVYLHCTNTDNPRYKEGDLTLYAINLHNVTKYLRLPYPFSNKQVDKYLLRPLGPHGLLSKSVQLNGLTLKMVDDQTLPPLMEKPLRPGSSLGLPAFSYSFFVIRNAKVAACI", "test": "fluorescent ABP labelling of whole cell lysates", "assay_type": "biochemical", "procedure": "as §3, with “(Systat). […]” for “(Systat).”"}},
  "data": [
    {"smiles": "O=C(O)C1C2O[C@H]2C(O)C(O)[C@@H]1O[C@H]1CC(CO)[C@@H](O)C(O)C1O", "note": "(stereo in doubt) [Compound 12, 4,5-dihydroxy-3-((2,3,4-trihydroxy-5-(hydroxymethyl)cyclohexyl)oxy)-7-oxabicyclo[4.1.0]heptane-2-carboxylic acid]", "values": [
      {"measurement": "effect on GUS signals", "setting": "[1]", "value": "without altering GUS signals"},
      {"measurement": "IC50", "setting": "[2]", "value": "0.4 ± 0.2", "unit": "µM"},
      {"measurement": "inhibitor concentration down to which HPSE signal is abrogated", "setting": "[2]", "value": 2.5, "unit": "µM"},
      {"measurement": "IC50", "setting": "[3]", "value": "0.5 ± 0.5", "unit": "µM"},
      {"measurement": "IC50", "setting": "[4]", "value": "1.2 ± 0.3", "unit": "µM"}
    ]},
    {"smiles": "O=C(O)C1C2O[C@H]2C(O)C(O)[C@@H]1O[C@H]1OC(CO)[C@@H](O)C(O)C1O", "note": "(stereo in doubt) [Compound 13, 4,5-dihydroxy-3-((3,4,5-trihydroxy-6-(hydroxymethyl)tetrahydro-2H-pyran-2-yl)oxy)-7-oxabicyclo[4.1.0]heptane-2-carboxylic acid]", "values": [
      {"measurement": "effect on GUS signals", "setting": "[1]", "value": "without altering GUS signals"},
      {"measurement": "IC50", "setting": "[2]", "value": "5 ± 1", "unit": "µM"},
      {"measurement": "inhibitor concentration down to which HPSE signal is abrogated", "setting": "[2]", "value": 2.5, "unit": "µM"},
      {"measurement": "IC50", "setting": "[3]", "value": "1 ± 1", "unit": "µM"},
      {"measurement": "inhibitor concentration down to which rHPSE is inactivated", "setting": "[3]; in-gel competitive ABPP", "value": 2, "unit": "µM"}
    ]},
    {"smiles": "O=C(O)C1C2O[C@H]2C(O)C(O)[C@@H]1O[C@@H]1CC(O)[C@H](O)C(CO)O1", "note": "(stereo partly drawn) [Compound 4, 4-O-(2-deoxy-D-glucopyranosyl)-glucurono-cyclophellitol]", "values": [
      {"measurement": "HPSE inhibition (abrogation of labelling by ABP 7)", "setting": "[5]", "value": "inhibited HPSE at nanomolar concentrations"},
      {"measurement": "binding mode in HPSE active site cleft", "setting": "[6]", "value": "covalent linkages between their pseudo-anomeric carbons and the enzyme nucleophile Glu343"}
    ]},
    {"smiles": "NC1C(O)[C@H](O)C(CO)O[C@@H]1O[C@H]1C(O)C(O)[C@@H]2OC2C1C(=O)O", "note": "(stereo partly drawn) [Compound 5, 4-O-(2-amino-2-deoxy-D-glucopyranosyl)-glucurono-cyclophellitol]", "values": [
      {"measurement": "HPSE inhibition (abrogation of labelling by ABP 7)", "setting": "[5]", "value": "do not inhibit HPSE well"},
      {"measurement": "Inhibition of BpHep and AcGH79", "setting": "[7]", "value": "all compounds apart from 5 showing activity"}
    ]},
    {"smiles": "[N-]=[N+]=NCC(=O)NC1C(O)[C@H](O)C(CO)O[C@@H]1O[C@H]1C(O)C(O)[C@@H]2OC2C1C(=O)O", "note": "(stereo partly drawn) [Compound 6, 4-O-(2-N-azidoacetyl-2-deoxy-D-glucopyranosyl)-glucurono-cyclophellitol]", "values": [
      {"measurement": "HPSE inhibition (abrogation of labelling by ABP 7)", "setting": "[5]", "value": "do not inhibit HPSE well"}
    ]},
    {"smiles": "CC(=O)NC1[C@@H](O[C@@H]2C(C(=O)O)C3O[C@H]3C(O)[C@H]2O)OC(CO)[C@@H](OCCCCCCCCNC(=O)CCCCC[N+]2=C(/C=C/C=C/C=C3/N(C)c4ccccc4C3(C)C)C(C)(C)c3ccccc32)[C@@H]1O", "note": "(stereo partly drawn) [Compound 9, 4-O-(2-N-acetyl-2-deoxy-4-O-(8-amino-Cy5-1-octyl)-α-D-glucopyranosyl)-glucurono-cyclophellitol]", "values": [
      {"measurement": "most substantial off-target", "setting": "[8]; 10 μM ABP concentration", "value": "serum albumin"},
      {"measurement": "HPSE specificity of labelling", "setting": "[8]; ABP at 1 μM and 10 μM, lysates of U87, PANC1, SKBR3, MDA-MB-231, HT1080, platelets", "value": "markedly improved HPSE specificity compared to both 7 and 8"}
    ]}
  ]
}
